The source of these data is patent US7601713B2, “Kinase inhibitors and their uses” (Rigel Pharmaceuticals, Inc., priority 2005, dated 2009).

Bounds are passed on as bounds.

In the experiment the test system is JAK kinases (JAK1 and JAK3). In words: JAK inhibition: IL-4-stimulated CD23 upregulation in human Ramos B-cells, FACS. It counts as cell-based. The settings on record: IL-4 stimulated Ramos B-cells, read-out: IC50, inhibition of JAK kinases in cellular assay. How it is done:
JAK inhibition was tested in human Ramos B-cells activated with IL-4. Twenty to 24 hours post stimulation, the cells are stained for upregulation of CD23 and analyzed by FACS. Stimulation of the B-cells with IL-4 leads to the activation of the JAK/STAT pathway through phosphorylation of the JAK kinase JAK1 and JAK3, which in turn phosphorylate and activate transcription of factor […].
For the assay, human Ramos B-cells (ATCC, Catalog No. CRL-1596) are cultured in RPMI 1640 medium (Cellgro, Catalog No. 10-040-CM) containing 10% fetal bovine serum (JRH, Catalog No. 12106-500M) according to the propagation protocol supplied with the cells, and maintained at a density of approximately 3.5×10^5 cells/ml. The day before the assay, the cells are diluted to 3.5×10^5 cells/ml to insure they are in the logarithmic growth phase. The cells are spun down, and suspended in RPMI 1640 medium containing 5% fetal bovine serum to a density of 3.5×10^4 cells/ml and aliquots dispensed into a 96-well tissue culture plate. Cells are incubated with test compound (dissolved in DMSO) or DMSO (control) for 1 hr at 37° C. and then stimulated with IL-4 (Pepotech, Catalog No. 200-04) for 20-24 hours (final concentration is 50 Units/ml). Cells are then spun down, stained with anti-CD23-PE antibody (BD Pharmigen, Catalog No. 555711) and analyzed by FACS.
For orientation: IC50 means the concentration needed to halve the response being measured. Consider `COc1cc2nc(Nc3cccc(O)c3)nc(NC3C4C=CC(C4)C3C(N)=O)c2cc1OC` (racemic) [Compound 101, Racemic-(2-exo,3-exo)-N4-(3-aminocarbonylbicyclo[2.2. 1]hept-5-en-2-yl)-6,7-dimethoxy-N2-(3-hydroxy)phenyl-2,4-quinazoline-diamine], for which the IC50 was below 5 µM.
For `NC(=O)C1C2C=CC(C2)C1Nc1nc(Nc2cccc(O)c2)nc2ccccc12` (racemic) [Compound 102, Racemic-(2-exo,3-exo)-N4-(3-aminocarbonylbicyclo[2.2. 1]hept-5-en-2-yl)-N2-(3-hydroxy)phenyl-2,4-quinazoline-diamine], the IC50 was below 5 µM.
For the compound `NC(=O)c1cccc(Nc2nc(NC3C4C=CC(C4)C3C(N)=O)c3nc[nH]c3n2)c1` (racemic) [Compound 122, Racemic-(2-exo,3-exo)-N6-(3-aminocarbonylbicyclo[2.2. 1]hept-5-en-2-yl)-N2-(3-aminocarbonyl)phenyl-1H-purine-2,6-diamine], the half-inhibitory concentration (IC50) is below 5 µM.
With `NC(=O)C1C2C=CC(C2)C1Nc1nc(Nc2ccc3c(c2)OCO3)nc2[nH]cnc12` (racemic) [Compound 125, Racemic-(2-exo,3-exo)-N6-(3-aminocarbonylbicyclo[2.2. 1]hept-5-en-2-yl)-N2-(1,3-benzodioxol-5-yl)-1H-purine-2,6-diamine], the IC50 is above 10 µM.
On to `Cc1cc2cc(Nc3nc(NC4C5C=CC(C5)C4C(N)=O)c4nc[nH]c4n3)ccc2[nH]1` (racemic) [Compound 150, Racemic-(2-exo,3-exo-)-N6-(3-aminocarbonylbicyclo[2.2. 1]hept-5-en-2-yl)-N2-(2-methyl-1H-indol-5-yl)-1H-purine-2,6-diamine], for which the half-inhibitory concentration (IC50) is above 10 µM.
Consider `NC(=O)C1C2CCC(C2)C1Nc1nc(Nc2ccc(N3CCCCC3)cc2)nc2[nH]ccc12` (racemic) [Compound 168, Racemic-(2-exo,3-exo) N4-(3-aminocarbonylbicyclo[2.2. 1]hept-2-yl)-N2-[4-(piperidin-1-yl)phenyl]-1H-pyrrlol[2,3-d]pyrimidine-2,4-diamine], for which the IC50 is above 10 µM.
The figure for `NC(=O)[C@@H]1[C@H](Nc2nc(Nc3ccc4[nH]ccc4c3)nc3[nH]cnc23)[C@H]2C=C[C@@H]1C2` [Compound 147, (1R,2R,3S,4S)-N6-(3-Aminocarbonylbicyclo[2.2. 1]hept-5-en-2-yl)-N2-(1H-indol-5-yl)-1H-purine-2,6-diamine] is below 5 µM.
